# Tested on: GST-Braf kinase domain and biotinylated E3 substrate adapter (VHL/EloB/EloC complex or CRBN318-425)
# Experiment: Dimerization assay (AlphaScreen/AlphaLisa), RAF/E3 dimerization
# Assay type: binding
# Conditions: Table 17; relative value; compounds 4 fold serial dilutions from 20 μM
row,Structure (SMILES),RAF/E3 Dimerization
1,"O=C1CCC(N2C(=O)c3cccc(NC(=O)CCCCCn4cc(COCCOCCOCCNC(=O)c5cc(Oc6ccc(NC(=O)Nc7ccc(Cl)c(C(F)(F)F)c7)cc6)ccn5)nn4)c3C2=O)C(=O)N1 (centres unmarked) [Compound 2.027, 4-(4-(3-(4-chloro-3-(trifluoromethyl)phenyl)ureido)phenoxy)-N-(2-(2-(2-((1-(6-((2-(2,6-dioxopiperidin-3-yl)-1,3-dioxoisoindolin-4-yl)amino)-6-oxohexyl)-1H-1,2,3-triazol-4-yl)methoxy)ethoxy)ethoxy)ethyl)picolinamide]",++ (25% > RAF/E3 Dimerization ≥ 5%)
2,"O=C1CCC(N2C(=O)c3cccc(NC(=O)CCCCCn4cc(COCCOCCOCCOCCOCCNC(=O)c5cc(Oc6ccc(NC(=O)Nc7ccc(Cl)c(C(F)(F)F)c7)cc6)ccn5)nn4)c3C2=O)C(=O)N1 (centres unmarked) [Compound 2.028, 4-(4-(3-(4-chloro-3-(trifluoromethyl)phenyl)ureido)phenoxy)-N-(1-(1-(6-((2-(2,6-dioxopiperidin-3-yl)-1,3-dioxoisoindolin-4-yl)amino)-6-oxohexyl)-1H-1,2,3-triazol-4-yl)-2,5,8,11,14-pentaoxahexadecan-16-yl)picolinamide]",++ (25% > RAF/E3 Dimerization ≥ 5%)
3,"O=C1CCC(N2C(=O)c3cccc(CCCOCCNC(=O)c4cc(Oc5ccc(NC(=O)Nc6ccc(Cl)c(C(F)(F)F)c6)cc5)ccn4)c3C2=O)C(=O)N1 (centres unmarked) [Compound 2.029, 4-(4-(3-(4-chloro-3-(trifluoromethyl)phenyl)ureido)phenoxy)-N-(2-(3-(2-(2,6-dioxopiperidin-3-yl)-1,3-dioxoisoindolin-4-yl)propoxy)ethyl)picolinamide]",+ (5% > RAF/E3 Dimerization)
4,"O=C1CCC(N2C(=O)c3cccc(CCCOCCOCCNC(=O)c4cc(Oc5ccc(NC(=O)Nc6ccc(Cl)c(C(F)(F)F)c6)cc5)ccn4)c3C2=O)C(=O)N1 (centres unmarked) [Compound 2.030, 4-(4-(3-(4-chloro-3-(trifluoromethyl)phenyl)ureido)phenoxy)-N-(2-(2-(3-(2-(2,6-dioxopiperidin-3-yl)-1,3-dioxoisoindolin-4-yl)propoxy)ethoxy)ethyl)picolinamide]",++ (25% > RAF/E3 Dimerization ≥ 5%)
5,"O=C1CCC(N2Cc3c(CCCCCCNC(=O)c4cc(Oc5ccc(NC(=O)Nc6ccc(Cl)c(C(F)(F)F)c6)cc5)ccn4)cccc3C2=O)C(=O)N1 (centres unmarked) [Compound 2.031, 4-(4-(3-(4-chloro-3-(trifluoromethyl)phenyl)ureido)phenoxy)-N-(6-(2-(2,6-dioxopiperidin-3-yl)-1-oxoisoindolin-4-yl)hexyl)picolinamide]",+ (5% > RAF/E3 Dimerization)
6,"O=C1CCC(N2Cc3c(CCCOCCNC(=O)c4cc(Oc5ccc(NC(=O)Nc6ccc(Cl)c(C(F)(F)F)c6)cc5)ccn4)cccc3C2=O)C(=O)N1 (centres unmarked) [Compound 2.032, 4-(4-(3-(4-chloro-3-(trifluoromethyl)phenyl)ureido)phenoxy)-N-(2-(3-(2-(2,6-dioxopiperidin-3-yl)-1-oxoisoindolin-4-yl)propoxy)ethyl)picolinamide]",+ (5% > RAF/E3 Dimerization)
7,"O=C1CCC(N2Cc3c(CCCOCCOCCNC(=O)c4cc(Oc5ccc(NC(=O)Nc6ccc(Cl)c(C(F)(F)F)c6)cc5)ccn4)cccc3C2=O)C(=O)N1 (centres unmarked) [Compound 2.033, 4-(4-(3-(4-chloro-3-(trifluoromethyl)phenyl)ureido)phenoxy)-N-(2-(2-(3-(2-(2,6-dioxopiperidin-3-yl)-1-oxoisoindolin-4-yl)propoxy)ethoxy)ethyl)picolinamide]",++ (25% > RAF/E3 Dimerization ≥ 5%)
8,"O=C1CCC(N2Cc3c(CCCCCCOCCOCCNC(=O)c4cc(Oc5ccc(NC(=O)Nc6ccc(Cl)c(C(F)(F)F)c6)cc5)ccn4)cccc3C2=O)C(=O)N1 (centres unmarked) [Compound 2.034, 4-(4-(3-(4-chloro-3-(trifluoromethyl)phenyl)ureido)phenoxy)-N-(2-(2-((6-(2-(2,6-dioxopiperidin-3-yl)-1-oxoisoindolin-4-yl)hexyl)oxy)ethoxy)ethyl)picolinamide]",++ (25% > RAF/E3 Dimerization ≥ 5%)
9,"CCCCCCNC(=O)Nc1cc(-c2cc3cnc(NCCCCc4cn(CCCCCC(=O)Nc5cccc6c5C(=O)N(C5CCC(=O)NC5=O)C6=O)nn4)nc3nc2C)c(C)cc1F (centres unmarked) [Compound 2.036, N-(2-(2,6-dioxopiperidin-3-yl)-1,3-dioxoisoindolin-4-yl)-6-(4-(4-((6-(4-fluoro-5-(3-hexylureido)-2-methylphenyl)-7-methylpyrido[2,3-d]pyrimidin-2-yl)amino)butyl)-1H-1,2,3-triazol-1-yl)hexanamide]",++ (25% > RAF/E3 Dimerization ≥ 5%)
10,"CNc1ncc2cc(-c3cc(NC(=O)NCCOCCOCCOCC(=O)N[C@@H](C(=O)N4C[C@H](O)C[C@H]4C(=O)N[C@@H](C)c4ccc(-c5scnc5C)cc4)C(C)(C)C)c(F)cc3C)c(C)nc2n1 [Compound 2.041, (2S,4R)-1-((R)-15-(tert-butyl)-1-((2-fluoro-4-methyl-5-(7-methyl-2-(methylamino)pyrido[2,3-d]pyrimidin-6-yl)phenyl)amino)-1,13-dioxo-5,8,11-trioxa-2,14-diazahexadecan-16-oyl)-4-hydroxy-N—((S)-1-(4-(4-methylthiazol-5-yl)phenyl)ethyl)pyrrolidine-2-carboxamide]",+ (5% > RAF/E3 Dimerization)

# Next, values leading:
row,RAF/E3 Dimerization,Structure (SMILES)
1,++++ (75% > RAF/E3 Dimerization ≥ 50%),"CCCCCCNC(=O)Nc1cc(-c2cc3cnc(NCCCCc4cn(CCCCCC(=O)N[C@@H](C(=O)N5C[C@H](O)C[C@H]5C(=O)N[C@@H](C)c5ccc(-c6scnc6C)cc5)C(C)(C)C)nn4)nc3nc2C)c(C)cc1F [Compound 2.037, (2S,4R)-1-((R)-2-(6-(4-(4-((6-(4-fluoro-5-(3-hexylureido)-2-methylphenyl)-7-methylpyrido[2,3-d]pyrimidin-2-yl)amino)butyl)-1H-1,2,3-triazol-1-yl)hexanamido)-3,3-dimethylbutanoyl)-4-hydroxy-N—((S)-1-(4-(4-methylthiazol-5-yl)phenyl)ethyl)pyrrolidine-2-carboxamide]"
2,+++ (50% > RAF/E3 Dimerization ≥ 25),"CCCCCCNC(=O)Nc1cc(-c2cc3cnc(NCCCCc4cn(CCCCC(=O)N[C@@H](C(=O)N5C[C@H](O)C[C@H]5C(=O)N[C@@H](C)c5ccc(-c6scnc6C)cc5)C(C)(C)C)nn4)nc3nc2C)c(C)cc1F [Compound 2.038, (2S,4R)-1-((R)-2-(5-(4-(4-((6-(4-fluoro-5-(3-hexylureido)-2-methylphenyl)-7-methylpyrido[2,3-d]pyrimidin-2-yl)amino)butyl)-1H-1,2,3-triazol-1-yl)pentanamido)-3,3-dimethylbutanoyl)-4-hydroxy-N—((S)-1-(4-(4-methylthiazol-5-yl)phenyl)ethyl)pyrrolidine-2-carboxamide]"
3,+++++ (RAF/E3 Dimerization ≥75%),"CCCCCCNC(=O)Nc1cc(-c2cc3cnc(NCCOCCOCc4cn(CCCCCC(=O)N[C@@H](C(=O)N5C[C@H](O)C[C@H]5C(=O)N[C@@H](C)c5ccc(-c6scnc6C)cc5)C(C)(C)C)nn4)nc3nc2C)c(C)cc1F [Compound 2.039, (2S,4R)-1-((R)-2-(6-(4-((2-(2-((6-(4-fluoro-5-(3-hexylureido)-2-methylphenyl)-7-methylpyrido[2,3-d]pyrimidin-2-yl)amino)ethoxy)ethoxy)methyl)-1H-1,2,3-triazol-1-yl)hexanamido)-3,3-dimethylbutanoyl)-4-hydroxy-N—((S)-1-(4-(4-methylthiazol-5-yl)phenyl)ethyl)pyrrolidine-2-carboxamide]"
4,+ (5% > RAF/E3 Dimerization),"CNc1ncc2cc(-c3cc(NC(=O)NCCOCCOCCOCCOCCOCC(=O)N[C@@H](C(=O)N4C[C@H](O)C[C@H]4C(=O)N[C@@H](C)c4ccc(-c5scnc5C)cc4)C(C)(C)C)c(F)cc3C)c(C)nc2n1 [Compound 2.040, (2S,4R)-1-((R)-21-(tert-butyl)-1-((2-fluoro-4-methyl-5-(7-methyl-2-(methylamino)pyrido[2,3-d]pyrimidin-6-yl)phenyl)amino)-1,19-dioxo-5,8,11,14,17-pentaoxa-2,20-diazadocosan-22-oyl)-4-hydroxy-N—((S)-1-(4-(4-methylthiazol-5-yl)phenyl)ethyl)pyrrolidine-2-carboxamide]"
5,+ (5% > RAF/E3 Dimerization),"CNc1ncc2cc(-c3cc(NC(=O)NCCOCCOCC(=O)N[C@@H](C(=O)N4C[C@H](O)C[C@H]4C(=O)N[C@@H](C)c4ccc(-c5scnc5C)cc4)C(C)(C)C)c(F)cc3C)c(C)nc2n1 [Compound 2.042, (2S,4R)-1-((R)-12-(tert-butyl)-1-((2-fluoro-4-methyl-5-(7-methyl-2-(methylamino)pyrido[2,3-d]pyrimidin-6-yl)phenyl)amino)-1,10-dioxo-5,8-dioxa-2,11-diazatridecan-13-oyl)-4-hydroxy-N—((S)-1-(4-(4-methylthiazol-5-yl)phenyl)ethyl)pyrrolidine-2-carboxamide]"
6,++ (25% > RAF/E3 Dimerization ≥ 5%),"CNc1ncc2cc(-c3cc(NC(=O)NCCCCCCOCCOCCOCCOCC(=O)N[C@@H](C(=O)N4C[C@H](O)C[C@H]4C(=O)N[C@@H](C)c4ccc(-c5scnc5C)cc4)C(C)(C)C)c(F)cc3C)c(C)nc2n1 [Compound 2.043, (2S,4R)-1-((R)-22-(tert-butyl)-1-((2-fluoro-4-methyl-5-(7-methyl-2-(methylamino)pyrido[2,3-d]pyrimidin-6-yl)phenyl)amino)-1,20-dioxo-9,12,15,18-tetraoxa-2,21-diazatricosan-23-oyl)-4-hydroxy-N—((S)-1-(4-(4-methylthiazol-5-yl)phenyl)ethyl)pyrrolidine-2-carboxamide]"
7,+ (5% > RAF/E3 Dimerization),"CC(NC(=O)c1ncnc(NCc2cn(CCCCCC(=O)Nc3cccc4c3C(=O)N(C3CCC(=O)NC3=O)C4=O)nn2)c1Cl)c1ncc(C(=O)Nc2cc(C(F)(F)F)c(Cl)cn2)s1 (centres unmarked) [Compound 2.044, N-(5-chloro-4-(trifluoromethyl)pyridin-2-yl)-2-(1-(5-chloro-6-(((1-(6-((2-(2,6-dioxopiperidin-3-yl)-1,3-dioxoisoindolin-4-yl)amino)-6-oxohexyl)-H-1,2,3-triazol-4-yl)methyl)amino)pyrimidine-4-carboxamido)ethyl)thiazole-5-carboxamide]"
